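Assay format: 96-well plates, 48-hour exposure. TGI: total growth inhibition.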
Assays:
Experiment in all cases: NCI tumour cell line growth inhibition, 48 h
[1] = tested on: 786-0 renal
[2] = tested on: A498 renal
[3] = tested on: A549 NSCLC
[4] = tested on: ACHN renal
[5] = tested on: CAKI-1 renal
[6] = tested on: CCRF-CEM leukemia
[7] = tested on: COLO 205 colon
[8] = tested on: DLD-1 colon
[9] = tested on: DMS 114 small cell lung
[10] = tested on: DMS 273 small cell lung
[11] = tested on: EKVX NSCLC
[12] = tested on: HCC-2998 colon
[13] = tested on: HCT-116 colon
[14] = tested on: HCT-15 colon
[15] = tested on: HL-60(TB) leukemia
[16] = tested on: HOP-18 NSCLC
[17] = tested on: HOP-62 NSCLC
[18] = tested on: HT29 colon
[19] = tested on: IGROV1 ovarian
[20] = tested on: K-562 leukemia
[21] = tested on: KM12 colon
[22] = tested on: KM20L2 colon
[23] = tested on: LOX IMVI melanoma
[24] = tested on: LXFL 529 NSCLC
[25] = tested on: M14 melanoma
[26] = tested on: M19-MEL melanoma
[27] = tested on: MALME-3M melanoma
[28] = tested on: MOLT-4 leukemia
[29] = tested on: NCI-H226 lung
[30] = tested on: NCI-H23 lung
[31] = tested on: NCI-H460 lung
[32] = tested on: NCI-H522 lung
[33] = tested on: OVCAR-3 ovarian
[34] = tested on: OVCAR-4 ovarian
[35] = tested on: OVCAR-5 ovarian
[36] = tested on: OVCAR-8 ovarian
[37] = tested on: RPMI-8226 leukemia
[38] = tested on: RXF 393 renal
[39] = tested on: RXF-631 renal
[40] = tested on: SF-268 CNS
[41] = tested on: SF-295 CNS
[42] = tested on: SF-539 CNS
[43] = tested on: SK-MEL-2 melanoma
[44] = tested on: SK-MEL-5 melanoma
[45] = tested on: SK-OV-3 ovarian
[46] = tested on: SN12C renal
[47] = tested on: SNB-19 CNS
[48] = tested on: SNB-75 CNS
[49] = tested on: SNB-78 CNS
[50] = tested on: SW-620 colon
[51] = tested on: TK-10 renal
[52] = tested on: U251 CNS
[53] = tested on: UACC-257 melanoma
[54] = tested on: UACC-62 melanoma
[55] = tested on: UO-31 renal
[56] = tested on: XF 498 CNS
[57] = tested on: HOP-92 NSCLC
[58] = tested on: SK-MEL-28 melanoma
[59] = tested on: SR leukemia

## COC(=O)C1=C(CS(=O)c2ccc([N+](=O)[O-])cc2[N+](=O)[O-])C2C=CC1C2 (stereo not given)
[1]
  TGI: 62.6 µM
[2]
  TGI: > 100 µM
[3]
  TGI: > 100 µM
[4]
  TGI: 39.5 µM
[5]
  TGI: 39.6 µM
[6]
  TGI: 34.6 µM
[7]
  TGI: 41.5 µM
[8]
  TGI: 37.6 µM
[9]
  TGI: 49.5 µM
[10]
  TGI: 43 µM
[11]
  TGI: > 100 µM
[12]
  TGI: 95.3 µM
[13]
  TGI: 45.1 µM
[14]
  TGI: 29.1 µM
[15]
  TGI: 37.2 µM
[16]
  TGI: > 100 µM
[17]
  TGI: > 100 µM
[18]
  TGI: 35.2 µM
[19]
  TGI: > 100 µM
[20]
  TGI: 52.5 µM
[21]
  TGI: > 100 µM
[22]
  TGI: 57.8 µM
[23]
  TGI: 30.8 µM
[24]
  TGI: 56.9 µM
[25]
  TGI: > 100 µM
[26]
  TGI: 64.2 µM
[27]
  TGI: 79.5 µM
[28]
  TGI: 59.8 µM
[29]
  TGI: 98.4 µM
[30]
  TGI: 98.9 µM
[31]
  TGI: > 100 µM
[32]
  TGI: 27.3 µM
[33]
  TGI: 66.8 µM
[34]
  TGI: 67.1 µM
[35]
  TGI: > 100 µM
[36]
  TGI: 80.9 µM
[37]
  TGI: > 100 µM
[38]
  TGI: 52.1 µM
[39]
  TGI: 32.7 µM
[40]
  TGI: > 100 µM
[41]
  TGI: > 100 µM
[42]
  TGI: 51.2 µM
[43]
  TGI: > 100 µM
[44]
  TGI: > 100 µM
[45]
  TGI: > 100 µM
[46]
  TGI: 50.2 µM
[47]
  TGI: > 100 µM
[48]
  TGI: 76.6 µM
[49]
  TGI: > 100 µM
[50]
  TGI: 28.6 µM
[51]
  TGI: 51.7 µM
[52]
  TGI: 49.4 µM
[53]
  TGI: 92.2 µM
[54]
  TGI: 42.2 µM
[55]
  TGI: 45.9 µM
[56]
  TGI: 64.1 µM

## N/C(=N\NS(=O)(=O)c1ccccc1)Oc1ccc(Br)cc1Br
[1]
  TGI: > 100 µM
[2]
  TGI: > 100 µM
[3]
  TGI: > 100 µM
[4]
  TGI: > 100 µM
[5]
  TGI: > 100 µM
[6]
  TGI: > 100 µM
[7]
  TGI: > 100 µM
[8]
  TGI: > 100 µM
[9]
  TGI: > 100 µM
[10]
  TGI: > 100 µM
[11]
  TGI: > 100 µM
[12]
  TGI: > 100 µM
[13]
  TGI: > 100 µM
[14]
  TGI: > 100 µM
[15]
  TGI: > 100 µM
[16]
  TGI: > 100 µM
[17]
  TGI: > 100 µM
[57]
  TGI: > 100 µM
[18]
  TGI: > 100 µM
[19]
  TGI: > 100 µM
[20]
  TGI: > 100 µM
[21]
  TGI: > 100 µM
[22]
  TGI: > 100 µM
[23]
  TGI: > 100 µM
[24]
  TGI: > 100 µM
[25]
  TGI: > 100 µM
[26]
  TGI: > 100 µM
[27]
  TGI: > 100 µM
[28]
  TGI: > 100 µM
[29]
  TGI: > 100 µM
[30]
  TGI: > 100 µM
[31]
  TGI: > 100 µM
[32]
  TGI: > 100 µM
[33]
  TGI: > 100 µM
[34]
  TGI: > 100 µM
[35]
  TGI: > 100 µM
[36]
  TGI: > 100 µM
[37]
  TGI: > 100 µM
[38]
  TGI: > 100 µM
[39]
  TGI: > 100 µM
[40]
  TGI: > 100 µM
[41]
  TGI: > 100 µM
[42]
  TGI: > 100 µM
[43]
  TGI: > 100 µM
[58]
  TGI: > 100 µM
[44]
  TGI: > 100 µM
[45]
  TGI: > 100 µM
[46]
  TGI: > 100 µM
[47]
  TGI: > 100 µM
[48]
  TGI: > 100 µM
[49]
  TGI: > 100 µM
[59]
  TGI: > 100 µM
[50]
  TGI: 24.3 µM
[51]
  TGI: > 100 µM
[52]
  TGI: > 100 µM
[53]
  TGI: > 100 µM
[54]
  TGI: > 100 µM
[55]
  TGI: > 100 µM
[56]
  TGI: > 100 µM
